Measurements: patent US6534313B1, “Genetically modified plants having modulated brassinosteroid signaling” (The Salk Institute for Biological Studies, priority 1999, dated 2003)

Assays:
[1] = tested on: bas1-DphyB-4 and phyB-4 seedlings; assay: Feeding experiment: metabolism of deuterium-labeled and non-labeled brassinolide in aseptically grown seedlings, GC-MS; assay type: in vivo; details: Arabidopsis seedlings, one day, GC-MS comparison with authentic sample
Text: To test the hypothesis that overexpression of bas1 gene product results in hydroxylation of brassinolide, metabolism of deuterium-labeled and non-labeled brassinolide was examined using aseptically grown seedlings. As possible hydroxylated metabolites of brassinolide, 14-hydroxybrassinolide, 20-hydroxybrassinolide, 25-hydroxybrassinolide, 26-hydroxybrassinolide, and 28-hydroxybrassinolide were chemically synthesized. The possible hydroxylated brassinolide fractions from the feeding experiments were analyzed by gas chromatograph-mass spectrometry (GC-MS) after conversion to methaneboronate-trimethylsilyl derivatives.
In preliminary experiments, bas1-DphyB-4 and phyB-4 seedlings were fed ^2H6-labeled brassinolide (d6-BL) and incubated for one day. […] When BL was fed to the seedlings, 26-OHBL was detected as a metabolite of BL. […] When d6-BL was fed to the seedlings, fragment ions such as m/z 625, 583 and 570 were detected. […]
For brassinosteroid measurements, plants were grown on soil (Neff and Chory, supra) in short day conditions (8 hours of light, […] of dark) for five weeks before rosettes were harvested in liquid nitrogen. […] Brassinosteroids were analyzed according to the methods described by (S. Fujioka et al., Plant Cell 9:1951-1962, 1997). […]
Each fraction was subjected to GC-MS analysis after derivatization. 26-OHBL was detected from retention time of 2-3 min. […]

Arabidopsis seedlings = assay: Brassinolide dose response of seedling hypocotyls and cotyledon petioles; assay type: in vivo
Text: FIGS. 3A-C are graphs showing the dose response of hypocotyls of seedlings to brassinosteroid as measured after 6 days on varying levels of brassinolide. […] Col-O=closed circles; phyB-4=open diamonds; bas1-DphyB-4=open circles; BAS1′ antisense line=closed diamonds; and det2-1=open triangles. Error bars represent one standard error from the mean. When no error bars are visible, they are smaller than the symbols.
By contrast, a brassinosteroid biosynthesis mutant det2-1 produced petioles that were shorter than the wild type in the light, while the petioles of phyB-4 mutants were longer than the wild type in the light. In both cases, these phenotypes were rescued by exposure to increasing amounts of brassinosteroids.
(CIDtech Research Inc., Mississauga, Ontario, Canada) 2 mM Brassinolide stock was made by dissolving in 95% (v/v) EtOH and stored at −20° C. The 1 μM solution was made by a 1:2000 fold dilution of the 2 mM stock in standard growth media. All other concentrations including the negative control contained the same amount of EtOH. Light conditions for fluence responses in red and blue light and seedling measurements were performed as described in Neff and Chory, supra. An E30LED growth chamber (Percival Scientific, Boone, IA) supplied far-red light. Far-red fluences were measured with a portable spectroradiometer (model LI-1800, Li-Cor, Inc., Lincoln, Nebr.).

Row | Compound | metabolite detected after feeding to seedlings [1] | hypocotyl hyper-responsivity to brassinolide (Arabidopsis seedlings; BAS1 antisense lines, grown in the dark, 6 days) | hypocotyl response to brassinolide (Arabidopsis seedlings; BAS1 antisense lines, grown in the light, 6 days) | rosette response to brassinolide (Arabidopsis seedlings; plants overexpressing bas1 (bas1-DphyB-4), white light)
1 | 2H6-labeled brassinolide [d6-BL] | d6-26-OHBL | – | – | –
2 | CC(C)[C@H](C)[C@@H](O)[C@H](O)[C@@H](C)[C@H]1CC[C@H]2[C@@H]3COC(=O)[C@H]4C[C@H](O)[C@H](O)C[C@]4(C)[C@H]3CC[C@]12C [BL, brassinolide] | 26-OHBL | not | hyper-responsivity | insensitive
